Assay results reported in paper PMC2723765 (Bioorganic & medicinal chemistry, 2009).
Like-named read-outs stand apart in the source and are kept apart here.

Assays:
[1] = PET studies; format: in vivo, C57BL/6 mice; conditions: co-injection with excess (50 μg) non-radioactive 4
[2] = biological target: CXCR4 (Mus musculus, UniProt P70658); conditions: read-out: IC50 of ^64Cu-4 binding to mouse splenocytes; constant amount of ^64Cu-4 and increasing concentrations of non-radioactive 4, 1 h; average of three experiments
CXCR4 (Mus musculus, UniProt P70658), sequence (P70658 whole entry): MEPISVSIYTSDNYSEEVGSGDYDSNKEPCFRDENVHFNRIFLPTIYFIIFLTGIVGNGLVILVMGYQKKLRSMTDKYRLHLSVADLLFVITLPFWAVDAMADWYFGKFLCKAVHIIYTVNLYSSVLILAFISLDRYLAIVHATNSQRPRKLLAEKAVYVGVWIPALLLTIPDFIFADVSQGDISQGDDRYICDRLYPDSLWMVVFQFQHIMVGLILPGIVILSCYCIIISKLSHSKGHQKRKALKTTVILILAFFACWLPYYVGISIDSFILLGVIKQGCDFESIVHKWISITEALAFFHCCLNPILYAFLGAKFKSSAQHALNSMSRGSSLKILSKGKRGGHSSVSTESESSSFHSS

[3] = biological target: CXCR4 (Homo sapiens, UniProt P61073); assay: Transwell migration assay of Jurkat cells towards SDF-1; format: cell-based; conditions: SDF-1 in lower wells
CXCR4 (Homo sapiens, UniProt P61073), sequence (P61073 whole entry): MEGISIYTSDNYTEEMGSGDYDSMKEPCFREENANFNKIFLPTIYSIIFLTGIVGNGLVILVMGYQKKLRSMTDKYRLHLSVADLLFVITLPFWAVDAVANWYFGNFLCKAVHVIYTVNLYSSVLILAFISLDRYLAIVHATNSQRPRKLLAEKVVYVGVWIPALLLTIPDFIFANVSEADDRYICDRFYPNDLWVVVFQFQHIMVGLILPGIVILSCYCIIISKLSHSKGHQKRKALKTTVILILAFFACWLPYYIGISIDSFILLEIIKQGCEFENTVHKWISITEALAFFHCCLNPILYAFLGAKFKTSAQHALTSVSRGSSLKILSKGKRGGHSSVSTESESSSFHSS

[4] = cited from earlier work

## CC(=O)[O-].CC(=O)[O-].[64Cu+2].c1cc(CN2CCCNCCNCCCNCC2)ccc1CN1CCCNCCNCCCNCC1 [^64Cu-4, [^64Cu]-1′-{1,4-phenylenebis(methylene)}-bis{1,4,8,11-tetraaza-cyclotetradecane}copper acetate]
[1]
  PET: uptake in spleen and liver after blocking: undetectable levels
1 h post i.v. injection
  Uptake in BM: 14 % ID/g
  Uptake in LN: 10 % ID/g
  Uptake in blood: 1.7 % ID/g
  Uptake in kidneys: 10 % ID/g
  Uptake in liver: 41 % ID/g
  Uptake in muscle: 0.3 % ID/g
  Uptake in spleen: 13 % ID/g
2 h post injection
  Accumulation in blood: < 1 % ID/g
  Accumulation in liver: 49 % ID/g
6 h post injection
  Change of accumulation in spleen, LN, liver and BM: slight increase
co-injection of excess (50 μg) non-labeled 4
  Change of accumulation in kidneys: corresponding increase in accumulation
co-injection of excess (50 μg) non-labeled 4, 2 h
  Reduction of accumulation in liver: 79%
co-injection of excess (50 μg) non-labeled 4, 6 h
  Reduction of accumulation in liver: 74%
co-injection of excess (50 μg) non-labeled 4, versus accumulation after 2 or 6 h
  Reduction of accumulation in all immune related organs: 60–80%
[2]
  IC50: 46.9 µM

## SDF-1: chemokine stromal cell-derived factor-1, native ligand for CXCR4
[3]
  Lowest concentration that induces maximal migration of Jurkat cells: 100 ng/mL

## ^99Tc- SDF-1: SDF-1 labeled with ^99Tc, imaging agent for myocardial infarction
[4]
  Accumulation in infarcted myocardium: 0.6 % ID/g
  Accumulation in normal myocardium: 0.1 % ID/g
